What all share (assay type): cell-based
Assay [1] concerns the target T1, human recombinant prostanoid EP1 receptor (Homo sapiens, UniProt P34995).
T1 construct: expressed in transfected cells
T1 sequence (P34995 1-402): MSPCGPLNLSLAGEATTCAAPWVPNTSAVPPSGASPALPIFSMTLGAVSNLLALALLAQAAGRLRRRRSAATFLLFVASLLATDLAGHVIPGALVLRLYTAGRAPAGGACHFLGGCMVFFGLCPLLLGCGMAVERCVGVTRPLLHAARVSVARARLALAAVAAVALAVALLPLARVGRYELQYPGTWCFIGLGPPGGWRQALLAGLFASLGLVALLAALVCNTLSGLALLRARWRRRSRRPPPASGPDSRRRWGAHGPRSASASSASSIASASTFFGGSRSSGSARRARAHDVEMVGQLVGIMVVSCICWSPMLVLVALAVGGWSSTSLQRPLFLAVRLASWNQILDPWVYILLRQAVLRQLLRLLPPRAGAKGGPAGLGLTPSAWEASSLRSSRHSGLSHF
Description: FLIPR Ca2+ signaling, PG antagonist activity, EP1. The following applies: antagonism of standard agonist PGE2, HEK-293 EBNA stable cells. On the procedure: (§1) The above compounds were tested for PG antagonist activity as follows using human recombinant prostanoid receptor (DP1, EP1-4, FP, IP and TP) stable cell lines:
(§2) In order to measure the response of Gs and Gi coupled prostanoid receptors as a Ca^2+ signal, chimeric G protein cDNAs were used. Stable cell lines over-expressing human prostanoid DP1, EP1-4, FP, IP, and TP receptors were established as follows:
(§3) Briefly, human prostanoid DP1, EP2, and EP4 receptor cDNAs were co-transfected with chimeric Gqs cDNA containing a haemagglutanin (HA) epitope; human prostanoid EP3 receptors were co-transfected with chimeric Gqi-HA; human EP1, FP, IP, and TP receptor cDNAs were expressed with no exogenous G-proteins. Gqs and Gqi chimeric cDNAs (Molecular Devices, Sunnyvale, Calif., U.S.A.), as well as cDNAs of prostanoid receptors, were cloned into a pCEP4 vector with a hygromycin B selection marker. Transfection into HEK-293 EBNA (Epstein-Barr virus nuclear antigen) cells was achieved by the FuGENE 6 transfection Reagent (Roche Applied Science, Indianapolis, Ind., USA). Stable transfectants were selected according to hygromycin resistance. Because Gqs and Gqi contained an HA epitope, G-protein expression was detected by Western blotting analysis using anti-mouse HA monoclonal antibody and horseradish peroxidase (HRP)-conjugated secondary antibody, while functional expression of prostanoid receptors was detected by FLIPR screening (Matias et al., 2004). These stable cell lines were validated using previously published antagonists at 10 μM against serial dilutions of standard agonists by FLIPR functional assays for Ca^2− Signaling (as described below).
(§4) Ca^2+ signaling studies were performed using a FLIPR TETRA system (Molecular Devices, Sunnyvale, Calif., USA) in the 384-format. This is a high-throughput instrument for cell-based assays to monitor Ca^2+ signaling associated with GPCRs and ion channels. Cells were seeded at a density of 5×10^4 cells/well in BioCoat poly-D-lysine coated, black wall, clear bottom 384-well plates (BD Biosciences, Franklin lakes, N.J., USA) and allowed to attach overnight in an incubator at 37° C. The cells were then washed twice with HBSS-HEPES buffer (Hanks' balanced salt solution without bicarbonate and phenol red, 20 mM HEPES, pH 7.4) using an ELx405 Select CW Microplate Washer (BioTek, Winooski, Vt., USA). After 60 min of dye-loading in the dark using the Ca^2+-sensitive dye Fluo-4AM (Invitrogen, Carlsbad, Calif., USA), at a final concentration of 2×10^−6M, the plates were washed 4 times with HBSS-HEPES buffer to remove excess dye and leaving 50 μl of buffer in each well. The plates were then placed in the FLIPR TETRA instrument and allowed to equilibrate at 37° C. AGN-211377 was added in a 25 μl volume to each well to give final concentrations of 0.1 μM, 0.3 μM, 1 μM, 3 μM, 10 μM, and 30 μM; or 0.067 μM, 0.1 μM, 0.2 μM, 0.3 μM, 0.67 μM, and 1 μM for cells over-expressing TP receptors. After 4.5 minutes, a 7-point serial dilution of the standard agonist for the corresponding receptor, in a 25 μl volume was injected at the final concentrations from 10^−11M to 10^−5M in 10-fold serial dilution increments for cells expressing human recombinant DP1, EP1, EP2, EP3, EP4, FP, and IP receptors. The dose range for the standard agonist for human recombinant TP receptors was from 10^−12M to 10^−6M. HBSS-HEPES buffer was used as the negative control for the standard agonists. Cells were excited with LED (light emitting diode) excitation at 470-495 nm and emission was measured through an emission filter at 515-575 nm. Assay plates were read for 3.5 minutes using the FLIPR^TETRA. The peak increase in fluorescence intensity was recorded for each well. On each plate, negative controls, dose response of positive controls, and co-treatments of antagonist-agonist for each dose were in triplicates. Standard agonists were as follows: DP=BW 245C, EP1-EP4=PGE2, FP=17-phenyl-PGF2α, IP=Cicaprost, and TP=U-46619. […]

For assay [2], the target named is T2, human recombinant prostanoid FP receptor (Homo sapiens, UniProt P43088).
T2 construct: expressed in transfected cells
T2 sequence (P43088 whole entry): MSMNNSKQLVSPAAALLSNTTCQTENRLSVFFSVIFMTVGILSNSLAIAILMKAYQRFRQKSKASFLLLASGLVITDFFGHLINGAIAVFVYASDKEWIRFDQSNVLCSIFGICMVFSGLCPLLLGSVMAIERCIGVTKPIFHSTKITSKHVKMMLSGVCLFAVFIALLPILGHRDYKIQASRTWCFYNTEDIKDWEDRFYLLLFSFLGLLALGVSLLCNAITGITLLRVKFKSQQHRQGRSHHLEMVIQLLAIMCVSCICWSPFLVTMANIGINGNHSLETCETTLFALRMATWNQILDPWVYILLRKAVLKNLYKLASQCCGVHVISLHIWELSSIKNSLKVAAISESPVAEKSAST
The assay is described as follows: FLIPR Ca2+ signaling, PG antagonist activity, FP. The following applies: antagonism of standard agonist 17-phenyl-PGF2α, HEK-293 EBNA stable cells. On the procedure:
as §1, §2, §3, §4

For assay [3], the target named is T3, human recombinant prostanoid EP4 receptor (Homo sapiens, UniProt P35408).
T3 construct: expressed in transfected cells; co-transfected with chimeric Gqs-HA
T3 sequence (P35408 whole entry): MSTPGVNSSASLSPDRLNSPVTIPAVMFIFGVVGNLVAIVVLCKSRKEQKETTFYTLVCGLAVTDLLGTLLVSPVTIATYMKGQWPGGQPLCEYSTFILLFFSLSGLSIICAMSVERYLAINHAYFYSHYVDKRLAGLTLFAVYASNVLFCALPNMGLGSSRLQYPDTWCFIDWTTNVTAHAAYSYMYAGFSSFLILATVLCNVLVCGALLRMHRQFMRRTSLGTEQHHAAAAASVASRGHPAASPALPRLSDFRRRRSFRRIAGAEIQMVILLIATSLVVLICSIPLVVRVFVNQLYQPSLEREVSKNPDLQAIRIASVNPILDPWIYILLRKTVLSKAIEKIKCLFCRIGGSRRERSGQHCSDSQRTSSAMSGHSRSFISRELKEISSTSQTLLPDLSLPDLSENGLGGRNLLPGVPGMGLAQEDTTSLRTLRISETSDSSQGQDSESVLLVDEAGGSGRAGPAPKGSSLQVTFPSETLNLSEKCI
The assay is described as follows: FLIPR Ca2+ signaling, PG antagonist activity, EP4. The following applies: antagonism of standard agonist PGE2, HEK-293 EBNA stable cells with chimeric Gqs. On the procedure: as §1, §2, §3, §4

Assay [4] addresses T4, human recombinant prostanoid IP receptor (Homo sapiens, UniProt P43119).
T4 construct: expressed in transfected cells
Description: FLIPR Ca2+ signaling, PG antagonist activity, IP. The note with it: antagonism of standard agonist Cicaprost, HEK-293 EBNA stable cells. The protocol: as §1, §2, §3, §4

Assay [5] concerns the target T5, human recombinant prostanoid TP receptor (Homo sapiens, UniProt P21731).
T5 construct: expressed in transfected cells
T5 sequence (P21731 1-343): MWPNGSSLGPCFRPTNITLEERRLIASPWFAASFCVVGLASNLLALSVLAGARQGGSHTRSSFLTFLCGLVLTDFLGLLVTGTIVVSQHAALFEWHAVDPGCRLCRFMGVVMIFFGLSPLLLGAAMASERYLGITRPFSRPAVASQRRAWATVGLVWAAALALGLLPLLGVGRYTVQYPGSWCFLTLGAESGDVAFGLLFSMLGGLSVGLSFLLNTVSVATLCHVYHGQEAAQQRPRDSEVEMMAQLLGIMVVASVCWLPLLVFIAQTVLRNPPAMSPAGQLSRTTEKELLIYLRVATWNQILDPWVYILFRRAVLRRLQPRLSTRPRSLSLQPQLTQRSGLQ
Description: FLIPR Ca2+ signaling, PG antagonist activity, TP. The note with it: antagonism of standard agonist U-46619, HEK-293 EBNA stable cells. On the procedure:
as §1, §2, §3, §4

A value given as a limit tells only on which side of the number the result lay.

T4 sequence (P43119 whole entry): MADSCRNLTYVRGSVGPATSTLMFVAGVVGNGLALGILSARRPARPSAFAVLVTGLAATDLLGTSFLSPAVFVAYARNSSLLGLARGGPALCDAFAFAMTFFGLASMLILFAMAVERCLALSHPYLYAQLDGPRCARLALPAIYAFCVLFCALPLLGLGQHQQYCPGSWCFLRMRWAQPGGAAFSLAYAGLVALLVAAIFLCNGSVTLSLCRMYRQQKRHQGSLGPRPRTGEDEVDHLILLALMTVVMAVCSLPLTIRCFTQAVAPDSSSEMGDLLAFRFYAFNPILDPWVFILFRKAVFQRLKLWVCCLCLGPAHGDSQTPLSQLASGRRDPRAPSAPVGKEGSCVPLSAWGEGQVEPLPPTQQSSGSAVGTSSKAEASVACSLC

In the case of `CCC(CC)COc1ccc(Br)cc1Cn1ncc(CC(=O)O)c1C` [Example 1, {1-[5-bromo-2-(2-ethyl-butoxy)-benzyl]-5-methyl-1H-pyrazol-4-yl}-acetic acid], the Kb is 0.17 µM in assay [1]; 2.7 µM in assay [2]; 0.1 µM in assay [3]; 4.8 µM in assay [4]; 0.003 µM in assay [5].

Regarding `CCC(CC)COc1ccc(Br)cc1Cn1ncc(C(=O)O)c1C` [Example 2, 1-[5-bromo-2-(2-ethyl-butoxy)-benzyl]-5-methyl-1H-pyrazole-4-carboxylic acid], the Kb came out at 0.033 µM in assay [1]; 0.08 µM in assay [2]; 0.38 µM in assay [3]; 2.4 µM in assay [4]; 0.012 µM in assay [5].

As for `CCC(CC)COc1ccc(Br)cc1Cn1cc(C(=O)O)c(C)n1` [Example 3], the Kb in assay [1] came out at 0.03 µM; in assay [2], 0.4 µM; in assay [3] it was 1.3 µM; in assay [4], 1.4 µM; in assay [5], 0.03 µM.

For `CCC(CC)COc1ccc(Cl)cc1Cn1cc(C(=O)O)cn1` [Example 4, 1-[5-chloro-2-(2-ethyl-butoxy)-benzyl]-1H-pyrazole-4-carboxylic acid], the Kb was 0.14 µM in assay [1]; 2 µM in assay [2]; 4.8 µM in assay [3]; 3.1 µM in assay [4]; 0.1 µM in assay [5].

Turning to `CCC(CC)COc1ccc(Cl)cc1Cn1nc(C)c(C(=O)O)c1C` [Example 5, 1-[5-chloro-2-(2-ethyl-butoxy)-benzyl]-3,5-dimethyl-1H-pyrazole-4-carboxylic acid], the Kb in assay [1] came to 0.02 µM; in assay [2] it was 0.7 µM; in assay [3], 0.86 µM; in assay [4], 0.6 µM; in assay [5] it was 0.018 µM.

For `CCCc1nn(Cc2cc(Cl)ccc2OCC(CC)CC)cc1C(=O)O` [Example 6, 1-[5-chloro-2-(2-ethyl-butoxy)-benzyl]-3-propyl-1H-pyrazole-4-carboxylic acid], the Kb is 1.5 µM in assay [1]; not below 10 µM in assay [2]; 4.9 µM in assay [3]; not below 10 µM in assay [4]; 0.5 µM in assay [5].

In the case of `CCCc1c(C(=O)O)cnn1Cc1cc(Cl)ccc1OCC(CC)CC` [Example 7, 1-[5-chloro-2-(2-ethyl-butoxy)-benzyl]-5-propyl-1H-pyrazole-4-carboxylic acid], the Kb in assay [1] was 0.64 µM; in assay [2], not below 10 µM; in assay [3], 3.3 µM; in assay [4] it was 1.8 µM; in assay [5], 0.15 µM.

In the case of `CCC(CC)COc1ccc(C(F)(F)F)cc1Cn1ncc(C(=O)O)c1C` [Example 8, 1-[2-(2-ethyl-butoxy)-5-trifluoromethyl-benzyl]-5-methyl-1H-pyrazole-4-carboxylic acid], the Kb in assay [1] was 0.04 µM; in assay [2], 0.2 µM; in assay [3], 1.6 µM; in assay [4], not below 10 µM; in assay [5] it was 0.045 µM.

Consider `CCC(CC)COc1ccc(C(F)(F)F)cc1Cn1cc(C(=O)O)c(C)n1` [Example 9, 1-[2-(2-ethyl-butoxy)-5-trifluoromethyl-benzyl]-3-methyl-1H-pyrazole-4-carboxylic acid], for which the Kb was 0.44 µM in assay [1]; 7.2 µM in assay [2]; not below 10 µM in assay [3]; not below 10 µM in assay [4]; 0.44 µM in assay [5].

For `CCC(CC)COc1ccc(Cl)cc1Cn1ncc(C(=O)O)c1C` [Example 10, 1-[5-chloro-2-(2-ethyl-butoxy)-benzyl]-5-methyl-1H-pyrazole-4-carboxylic acid], the Kb in assay [1] was determined as 0.05 µM; in assay [2], 0.19 µM; in assay [3], 0.5 µM; in assay [4] it was 1.3 µM; in assay [5], 0.006 µM.

In the case of `Cc1c(C(=O)O)cnn1Cc1cc(Cl)ccc1OCC(C)C` [Example 11, 1-(5-chloro-2-isobutoxy-benzyl)-5-methyl-1-pyrazole-4-carboxylic acid], the Kb in assay [1] was determined as 0.03 µM; in assay [2], 0.5 µM; in assay [3], 3.3 µM; in assay [4], 8.3 µM; in assay [5], 0.08 µM.

Regarding `Cc1c(C(=O)O)cnn1Cc1cc(Cl)ccc1OCC1CCCC1` [Example 12, 1-(5-chloro-2-cyclopentylmethoxy-benzyl)-5-methyl-1H-pyrazole-4-carboxylic acid], the Kb in assay [1] came to 0.03 µM; in assay [2] it was 0.11 µM; in assay [3], 0.6 µM; in assay [4] it was 2.65 µM; in assay [5], 0.04 µM.

Consider `Cc1c(C(=O)O)cnn1Cc1cc(Br)ccc1OCC(C)C` [Example 13, 1-(5-bromo-2-isobutoxy-benzyl)-5-methyl-1H-pyrazole-4-carboxylic acid], for which the Kb in assay [1] is 0.03 µM; in assay [2], 0.07 µM; in assay [3] it was 2.1 µM; in assay [4], 7.7 µM; in assay [5], 0.02 µM.

As for `Cc1c(C(=O)O)cnn1Cc1cc(Br)ccc1OCC(C)(C)C` [Example 14, 1-[5-bromo-2-(2,2-dimethyl-propoxy)-benzyl]-5-methyl-1H-pyrazole-4-carboxylic acid], the antagonist equilibrium constant (Kb) in assay [1] is 0.03 µM; in assay [2], 0.09 µM; in assay [3] it was 1.3 µM; in assay [4], not below 10 µM; in assay [5], 0.02 µM.

As to `CCC(CC)COc1ccc(OC(F)(F)F)cc1Cn1ncc(C(=O)O)c1C` [Example 15, 1-[2-(2-ethyl-butoxy)-5-trifluoromethoxy-benzyl]-5-methyl-1H-pyrazole-4-carboxylic acid], the Kb in assay [1] is 0.045 µM; in assay [2] it was 0.14 µM; in assay [3], 1.5 µM; in assay [4], not below 10 µM; in assay [5] it was 0.008 µM.

The Kb is the affinity of an antagonist, worked out from how it opposes an agonist.

The record behind these values is US9035071B2, “Compounds acting at multiple prostaglandin receptors giving a general anti-inflammatory response” (Allergan, Inc., priority 2011, dated 2015).
